Data reported in PubChem BioAssay (NCI).
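Cells were grown in 96-well plates and exposed to each compound for 48 hours at five concentrations; endpoints were interpolated linearly between bracketing concentrations, or set to the highest concentration if not reached. GI50: concentration for 50% inhibition of growth. The concentration for full growth arrest is given as TGI.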

Tests used:
Test in all cases: NCI anticancer screen, dose series, 48 h
[1] = test system: A549 NSCLC
[2] = test system: HCT-116 colon
[3] = test system: HL-60(TB) leukemia
[4] = test system: HS 578T breast
[5] = test system: IGROV1 ovarian
[6] = test system: K-562 leukemia
[7] = test system: KM12 colon
[8] = test system: SF-268 CNS
[9] = test system: SF-539 CNS
[10] = test system: HOP-92 NSCLC

SMILES | GI50 [1] [µM] | TGI [1] [µM] | GI50 [2] [µM] | TGI [2] [µM] | GI50 [3] [µM] | TGI [3] [µM] | GI50 [4] [µM] | TGI [4] [µM] | GI50 [5] [µM] | TGI [5] [µM] | TGI [6] [µM] | GI50 [7] [µM] | TGI [7] [µM] | GI50 [8] [µM] | TGI [8] [µM] | GI50 [9] [µM] | TGI [9] [µM] | TGI [10] [µM] | GI50 [10] [µM] | GI50 [6] [µM]
O=C(/C=C/c1ccco1)c1cccc(Nc2nc(Nc3ccccc3)nc(Nc3ccccc3)n2)c1 | 0.357 | > 38.2 | 2.47 | 35.3 | > 29.6 | > 54.3 | 12.6 | > 82.7 | 2.87 | > 100 | > 56.1 | 6.06 | > 100 | 28.7 | > 100 | 44.5 | > 100 |  |  | 
CCCCCCCCCCCCCCCc1nc(SCC(=O)O)n[nH]1 |  | > 100 |  | > 100 |  | > 100 |  |  |  | > 100 | > 100 |  | > 100 |  | > 100 |  | > 100 | 65 |  | 
CC(=O)O[C@H]1CC[C@@]2(C)[C@@H](CC[C@@H]3[C@@H]2CC(=O)[C@@]2(C)[C@H]3C[C@@H]3CC(C)=CC(=O)[C@@H]32)C1 |  | > 100 |  | > 100 |  | 27.8 |  | 80.3 |  | > 100 | > 100 |  | > 100 |  | > 100 |  |  |  |  | 
OC1/C(=C/c2ccccc2)CNC/C1=C\c1ccccc1 (centres undefined) |  | > 100 |  | > 100 |  | > 100 |  |  |  | > 100 |  |  | > 100 |  | > 100 |  | > 100 | > 100 |  | 
C/C(=N\O)c1ccc(Nc2cc(-c3ccccc3)nc3c(O)cccc23)cc1 | 10.2 | 31 | 13.2 | 25.9 | 0.585 | 96.6 | 15.9 | 62.4 | 17.1 | 34.6 | 97.6 | 4.06 | 21.4 |  |  | 15.3 | 29.6 | 44.6 | 20.1 | 15.2
Cn1c(=O)c2nc3sc4ccccc4c(=N)n3c2n(C)c1=O |  | > 100 |  |  |  | > 100 |  |  |  | > 100 | > 100 |  | > 100 |  | > 100 |  | > 100 | > 100 |  | 
O=C1OC(/C=C/c2ccccc2)C(=O)C1=O (centres undefined) |  | > 100 |  |  |  | > 100 |  |  |  | > 100 | > 100 |  | > 100 |  | > 100 |  | > 100 | > 100 |  | 
COc1cc(/C=C/C(=O)c2ccc(SC)cc2)cc(OC)c1OC | 6.25 | 20.7 | 3.3 | 13.7 |  |  | 12.3 | 37 |  |  | 16.4 | 13.3 | 29.1 | 16 | 37.8 | 11.7 | 27.2 | > 100 | 32.9 | 3.2
CC12CCC(C)(c3cc(O)c(O)cc31)c1cc(O)c(O)cc12 |  | 94.4 |  |  |  | 13.1 |  |  |  | 40.4 | 29.5 |  | 32.7 |  | 42.9 |  |  | 25.4 |  | 
O=c1c2ccc(Br)cc2nc(-c2ccccc2)n1NC1OC(CO)C(O)C(O)C1O (centres undefined) |  | > 100 |  | > 100 |  | > 100 |  |  |  | > 100 | > 100 |  | > 100 |  | > 100 |  | > 100 | > 100 |  | 
CCOC(=O)/C(C#N)=C/c1[nH]c(C)c(C)c1C |  | > 100 |  | > 100 |  | > 100 |  |  |  | > 100 | > 100 |  | > 100 |  | > 100 |  | > 100 | > 100 |  | 
O=C(NCCOCCO)c1ccc(O)cc1 |  | > 100 |  | > 100 |  | > 100 |  |  |  | > 100 | > 100 |  |  |  | > 100 |  | > 100 | > 100 |  | 
CCC1(O)CC(c2ccccc2)N(C)C(c2ccccc2)C1 (centres undefined) |  | > 100 |  | > 100 |  | > 100 |  |  |  | > 100 | > 100 |  | > 100 |  | > 100 |  | > 100 | > 100 |  | 
OC(c1cc2c(Cl)cc(Cl)cc2c2cc(C(F)(F)F)ccc12)C1CCCCN1 (centres undefined) | 1.85 | 3.68 | 1.67 | 3.37 | 1.85 | 3.71 | 1.59 | 3.72 | 1.74 | 3.58 |  | 1.89 | 3.46 | 1.86 | 3.82 |  |  | 2.57 | 1.12 | 
COc1cc(C2C(C(=O)Nc3ccccc3C)=C(C)NC(C)=C2C(=O)Nc2ccccc2C)ccc1O |  | > 100 |  | > 100 |  | > 100 |  |  |  | > 100 | > 100 |  | > 100 |  |  |  | > 100 | > 100 |  | 
c1ccc2c(c1)-c1nc3ccccc3cc1C2N1CCOCC1 (centres undefined) |  | > 100 |  | > 100 |  | > 100 |  | > 100 |  | > 100 | > 100 |  | > 100 |  | > 100 |  |  |  |  | 
C[C@]12CC[C@H](O)CC1CCC[C@@H]2O (some centres undefined) |  | > 100 |  | > 100 |  | > 100 |  |  |  | > 100 | > 100 |  | > 100 |  | > 100 |  | > 100 | > 100 |  | 
CCN(CC)[C@@H]1c2cc3c(cc2C(c2cc(OC)c(O)c(OC)c2)C2C(=O)CO[C@@H]21)OCO3 (some centres undefined) |  | > 100 |  | > 100 |  | > 100 |  |  |  | > 100 | > 100 |  | > 100 |  | > 100 |  | > 100 | > 100 |  | 
Fc1cccc(C2SCc3nc4ccccc4n32)c1 (centres undefined) |  | > 100 |  | > 100 |  | 62.8 |  |  |  | > 100 | > 100 |  | > 100 |  | > 100 |  | > 100 | 55.7 |  | 
Cc1cc(=O)[nH]c2c1C(=O)C(=O)C=C2 | 81.9 | > 100 | 18.2 | 35.4 |  |  | 40.4 | > 100 | 48.6 | > 100 | > 100 |  |  | 18.7 | 43.7 | 28.2 | 47.7 | > 100 | 77.9 | 34.3
